Test results published in PubChem BioAssay (NCI).
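Tested at 5 concentrations; 48 h exposure; 96-well plates; endpoints linearly interpolated, else capped at highest concentration. GI50: concentration for 50% inhibition of growth. At the TGI there is no net growth.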

Tests used:
Experiment in all cases: NCI tumour cell line growth inhibition, 48 h
SK-MEL-5 melanoma = tested on: SK-MEL-5 melanoma
NCI-H460 lung = tested on: NCI-H460 lung
MDA-MB-435 = tested on: MDA-MB-435
SF-268 CNS = tested on: SF-268 CNS
SK-OV-3 ovarian = tested on: SK-OV-3 ovarian
CAKI-1 renal = tested on: CAKI-1 renal
A549 NSCLC = tested on: A549 NSCLC
HOP-92 NSCLC = tested on: HOP-92 NSCLC
OVCAR-4 ovarian = tested on: OVCAR-4 ovarian
HOP-62 NSCLC = tested on: HOP-62 NSCLC
U251 CNS = tested on: U251 CNS
ACHN renal = tested on: ACHN renal
K-562 leukemia = tested on: K-562 leukemia
CCRF-CEM leukemia = tested on: CCRF-CEM leukemia
UACC-62 melanoma = tested on: UACC-62 melanoma
RPMI-8226 leukemia = tested on: RPMI-8226 leukemia
MOLT-4 leukemia = tested on: MOLT-4 leukemia
SW-620 colon = tested on: SW-620 colon
M14 melanoma = tested on: M14 melanoma
NCI-H23 lung = tested on: NCI-H23 lung
COLO 205 colon = tested on: COLO 205 colon
T-47D breast = tested on: T-47D breast
RXF 393 renal = tested on: RXF 393 renal
NCI/ADR-RES ovarian = tested on: NCI/ADR-RES ovarian
MALME-3M melanoma = tested on: MALME-3M melanoma
OVCAR-5 ovarian = tested on: OVCAR-5 ovarian
IGROV1 ovarian = tested on: IGROV1 ovarian
HL-60(TB) leukemia = tested on: HL-60(TB) leukemia
MCF7 breast = tested on: MCF7 breast
SNB-75 CNS = tested on: SNB-75 CNS
SR leukemia = tested on: SR leukemia
SK-MEL-28 melanoma = tested on: SK-MEL-28 melanoma
SK-MEL-2 melanoma = tested on: SK-MEL-2 melanoma
NCI-H226 lung = tested on: NCI-H226 lung
NCI-H522 lung = tested on: NCI-H522 lung
EKVX NSCLC = tested on: EKVX NSCLC
LOX IMVI melanoma = tested on: LOX IMVI melanoma
HCT-116 colon = tested on: HCT-116 colon
UO-31 renal = tested on: UO-31 renal
HT29 colon = tested on: HT29 colon
SF-295 CNS = tested on: SF-295 CNS
KM12 colon = tested on: KM12 colon
HCC-2998 colon = tested on: HCC-2998 colon
786-0 renal = tested on: 786-0 renal
PC-3 prostate = tested on: PC-3 prostate
SF-539 CNS = tested on: SF-539 CNS
OVCAR-8 ovarian = tested on: OVCAR-8 ovarian
SN12C renal = tested on: SN12C renal
OVCAR-3 ovarian = tested on: OVCAR-3 ovarian
UACC-257 melanoma = tested on: UACC-257 melanoma
A498 renal = tested on: A498 renal
DU-145 prostate = tested on: DU-145 prostate
TK-10 renal = tested on: TK-10 renal
MDA-MB-231 breast = tested on: MDA-MB-231 breast
HCT-15 colon = tested on: HCT-15 colon
HS 578T breast = tested on: HS 578T breast
SNB-19 CNS = tested on: SNB-19 CNS

In the case of `CCN1C(=O)CS/C1=N/NC(=O)C(O)(c1ccccc1)C1C=CC=CC1` (configuration not stated), the TGI (SK-MEL-5 melanoma) is reported as greater than 10 µM, the TGI (NCI-H460 lung) is reported as greater than 10 µM and the TGI (MDA-MB-435) is reported as greater than 10 µM. For the same molecule, the TGI (SF-268 CNS) was greater than 10 µM, the TGI (SK-OV-3 ovarian) was greater than 10 µM and the TGI (CAKI-1 renal) was greater than 10 µM. It also gave a TGI (A549 NSCLC) greater than 10 µM, a TGI (HOP-92 NSCLC) greater than 10 µM and a TGI (OVCAR-4 ovarian) greater than 10 µM. It also gave a TGI (HOP-62 NSCLC) greater than 10 µM, a TGI (U251 CNS) greater than 10 µM and a TGI (ACHN renal) greater than 10 µM. For the same molecule, the TGI (K-562 leukemia) was greater than 10 µM, the TGI (CCRF-CEM leukemia) was greater than 10 µM and the TGI (UACC-62 melanoma) was greater than 10 µM. It also gave a TGI (RPMI-8226 leukemia) greater than 10 µM, a TGI (MOLT-4 leukemia) greater than 10 µM and a TGI (SW-620 colon) greater than 10 µM. It also gave a TGI (M14 melanoma) greater than 10 µM, a TGI (NCI-H23 lung) greater than 10 µM and a TGI (COLO 205 colon) greater than 10 µM. It also gave a TGI (T-47D breast) greater than 10 µM, a TGI (RXF 393 renal) greater than 10 µM and a TGI (NCI/ADR-RES ovarian) greater than 10 µM. It also gave a TGI (MALME-3M melanoma) greater than 10 µM, a TGI (OVCAR-5 ovarian) greater than 10 µM and a TGI (IGROV1 ovarian) greater than 10 µM. For the same molecule, the TGI (HL-60(TB) leukemia) was greater than 10 µM, the TGI (MCF7 breast) was greater than 10 µM and the TGI (SNB-75 CNS) was greater than 10 µM. For the same molecule, the TGI (SR leukemia) was greater than 10 µM, the TGI (SK-MEL-28 melanoma) was greater than 10 µM and the TGI (SK-MEL-2 melanoma) was greater than 10 µM.
In the case of `CCC(=O)c1cc([N+](=O)[O-])c(Br)s1`, the GI50 (SK-MEL-5 melanoma) is reported as 16.5 µM, the TGI (SK-MEL-5 melanoma) is reported as 30.4 µM and the GI50 (NCI-H226 lung) is reported as 18.7 µM. For the same molecule, the TGI (NCI-H226 lung) was 35.6 µM, the GI50 (NCI-H522 lung) was 0.904 µM and the TGI (NCI-H522 lung) was 2.2 µM. For the same molecule, the GI50 (EKVX NSCLC) was 16.4 µM, the TGI (EKVX NSCLC) was 34.8 µM and the GI50 (NCI-H460 lung) was 6.17 µM. It also gave a TGI (NCI-H460 lung) of 20.9 µM, a GI50 (LOX IMVI melanoma) of 1.88 µM and a TGI (LOX IMVI melanoma) of 3.46 µM. It also gave a GI50 (MDA-MB-435) of 4.77 µM, a TGI (MDA-MB-435) of 18.7 µM and a GI50 (HCT-116 colon) of 1.68 µM. For the same molecule, the TGI (HCT-116 colon) was 3.14 µM, the GI50 (UO-31 renal) was 1.59 µM and the TGI (UO-31 renal) was 2.98 µM. It also gave a GI50 (SF-268 CNS) of 4.39 µM, a TGI (SF-268 CNS) of 14.6 µM and a GI50 (SK-OV-3 ovarian) of 19.4 µM. It also gave a TGI (SK-OV-3 ovarian) of 33.9 µM, a GI50 (CAKI-1 renal) of 1.66 µM and a TGI (CAKI-1 renal) of 3.41 µM. For the same molecule, the GI50 (A549 NSCLC) was 5.27 µM, the TGI (A549 NSCLC) was 19.6 µM and the GI50 (HOP-92 NSCLC) was 1.96 µM. For the same molecule, the TGI (HOP-92 NSCLC) was 4.8 µM, the GI50 (OVCAR-4 ovarian) was 1.86 µM and the TGI (OVCAR-4 ovarian) was 3.65 µM. The GI50 (HOP-62 NSCLC) was 2.25 µM, the TGI (HOP-62 NSCLC) was 4.54 µM and the GI50 (U251 CNS) was 1.85 µM. For the same molecule, the TGI (U251 CNS) was 4.02 µM, the GI50 (ACHN renal) was 1.71 µM and the TGI (ACHN renal) was 3.26 µM. For the same molecule, the GI50 (HT29 colon) was 1.52 µM, the TGI (HT29 colon) was 3.29 µM and the GI50 (SF-295 CNS) was 15.5 µM. For the same molecule, the TGI (SF-295 CNS) was 31.6 µM, the GI50 (K-562 leukemia) was 2.16 µM and the TGI (K-562 leukemia) was 6.82 µM. It also gave a GI50 (KM12 colon) of 11.6 µM, a TGI (KM12 colon) of 24.2 µM and a GI50 (UACC-62 melanoma) of 14.4 µM. It also gave a TGI (UACC-62 melanoma) of 28.8 µM, a GI50 (HCC-2998 colon) of 15.2 µM and a TGI (HCC-2998 colon) of 31 µM. The GI50 (RPMI-8226 leukemia) was 20.2 µM, the TGI (RPMI-8226 leukemia) was 89 µM and the GI50 (786-0 renal) was 12.6 µM. It also gave a TGI (786-0 renal) of 26.6 µM, a GI50 (MOLT-4 leukemia) of 2.7 µM and a TGI (MOLT-4 leukemia) of 13.2 µM. For the same molecule, the GI50 (SW-620 colon) was 1.65 µM, the TGI (SW-620 colon) was 3.19 µM and the GI50 (M14 melanoma) was 3.13 µM. For the same molecule, the TGI (M14 melanoma) was 10.6 µM, the GI50 (NCI-H23 lung) was 17.3 µM and the TGI (NCI-H23 lung) was 49.2 µM. It also gave a GI50 (COLO 205 colon) of 1.99 µM, a TGI (COLO 205 colon) of 3.56 µM and a GI50 (PC-3 prostate) of 10.3 µM. For the same molecule, the TGI (PC-3 prostate) was 24.4 µM, the GI50 (SF-539 CNS) was 3.9 µM and the TGI (SF-539 CNS) was 16.8 µM. It also gave a GI50 (OVCAR-8 ovarian) of 2.23 µM, a TGI (OVCAR-8 ovarian) of 5.04 µM and a GI50 (RXF 393 renal) of 1.88 µM. For the same molecule, the TGI (RXF 393 renal) was 3.31 µM, the GI50 (NCI/ADR-RES ovarian) was 6.15 µM and the TGI (NCI/ADR-RES ovarian) was 24.1 µM. It also gave a GI50 (SN12C renal) of 8.3 µM, a TGI (SN12C renal) of 24.1 µM and a GI50 (OVCAR-3 ovarian) of 1.91 µM. The TGI (OVCAR-3 ovarian) was 3.32 µM, the GI50 (UACC-257 melanoma) was 1.21 µM and the TGI (UACC-257 melanoma) was 2.52 µM. The GI50 (A498 renal) was 17.3 µM, the TGI (A498 renal) was 31.3 µM and the GI50 (MALME-3M melanoma) was 1.85 µM. The TGI (MALME-3M melanoma) was 3.87 µM, the GI50 (OVCAR-5 ovarian) was 16.6 µM and the TGI (OVCAR-5 ovarian) was 32.1 µM. It also gave a GI50 (DU-145 prostate) of 4.31 µM, a TGI (DU-145 prostate) of 13.3 µM and a GI50 (TK-10 renal) of 13.8 µM. The TGI (TK-10 renal) was 28.1 µM, the GI50 (MDA-MB-231 breast) was 6.79 µM and the TGI (MDA-MB-231 breast) was 21.3 µM. For the same molecule, the GI50 (MCF7 breast) was 2.89 µM, the TGI (MCF7 breast) was 12.3 µM and the GI50 (HCT-15 colon) was 2.47 µM. For the same molecule, the TGI (HCT-15 colon) was 8.21 µM, the GI50 (SNB-75 CNS) was 10.4 µM and the TGI (SNB-75 CNS) was 22.2 µM. It also gave a GI50 (SR leukemia) of 1.2 µM, a TGI (SR leukemia) of 3.71 µM and a GI50 (HS 578T breast) of 19.5 µM. The TGI (HS 578T breast) was 85 µM, the GI50 (SK-MEL-28 melanoma) was 4.17 µM and the TGI (SK-MEL-28 melanoma) was 15.2 µM. The GI50 (SNB-19 CNS) was 17.4 µM and the TGI (SNB-19 CNS) was 35.3 µM.
